Key:
[1] = target: T1, Broad substrate specificity ATP-binding cassette transporter ABCG2 (Homo sapiens, UniProt Q9UNQ0); test: TP_TRANSPORTER: intracellular accumulation in S1 and S1-M1-80 cells; format: functional, cell-based; conditions: s1;s1-m1-80
T1 sequence (Q9UNQ0 whole entry): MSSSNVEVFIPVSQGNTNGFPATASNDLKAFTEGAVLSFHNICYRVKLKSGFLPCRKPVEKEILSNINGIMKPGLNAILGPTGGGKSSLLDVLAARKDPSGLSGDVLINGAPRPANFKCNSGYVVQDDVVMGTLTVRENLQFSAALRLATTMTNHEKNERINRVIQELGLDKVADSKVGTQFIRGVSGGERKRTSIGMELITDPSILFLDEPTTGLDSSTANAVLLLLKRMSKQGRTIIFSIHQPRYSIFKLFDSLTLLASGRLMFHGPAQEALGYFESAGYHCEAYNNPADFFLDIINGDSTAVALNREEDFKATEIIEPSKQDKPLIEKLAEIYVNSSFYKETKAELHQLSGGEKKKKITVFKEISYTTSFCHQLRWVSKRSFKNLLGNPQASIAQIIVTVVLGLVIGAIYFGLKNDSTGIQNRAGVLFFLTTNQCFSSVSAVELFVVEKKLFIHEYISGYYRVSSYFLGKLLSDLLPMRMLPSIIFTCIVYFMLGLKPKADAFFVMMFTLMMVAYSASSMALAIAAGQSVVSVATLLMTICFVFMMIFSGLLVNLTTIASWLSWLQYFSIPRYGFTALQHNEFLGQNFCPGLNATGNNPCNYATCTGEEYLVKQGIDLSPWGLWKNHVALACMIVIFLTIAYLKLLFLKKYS

[2] = target: T1, Broad substrate specificity ATP-binding cassette transporter ABCG2; test: TP_TRANSPORTER: intracellular accumulation in MCF-7 and MCF-7 AdVp3000 cells; format: functional, cell-based

SMILES: O=C1c2c(O)ccc(O)c2C(=O)c2c(NCCNCCO)ccc(NCCNCCO)c21 [MITOXANTRONE]
- Activity [1]: substrate [+]
- Activity [2]: substrate [+]

From ChEMBL document CHEMBL2073744, “The multidrug-resistant phenotype associated with overexpression of the new ABC half-transporter, MXR (ABCG2)” (J Cell Sci, 2000)
